9 molecules from patent US6004948A, “Derivatives of benzosulphonamides as inhibitors of the enzyme cyclooxygenase II” (Nycomed Austria GmbH, priority 1995, dated 1999) can be followed below.

The target in one assay is T1, Human COX-2 (Homo sapiens, UniProt P35354).
T1 construct: endogenous in cells
T1 sequence (P35354 18-604): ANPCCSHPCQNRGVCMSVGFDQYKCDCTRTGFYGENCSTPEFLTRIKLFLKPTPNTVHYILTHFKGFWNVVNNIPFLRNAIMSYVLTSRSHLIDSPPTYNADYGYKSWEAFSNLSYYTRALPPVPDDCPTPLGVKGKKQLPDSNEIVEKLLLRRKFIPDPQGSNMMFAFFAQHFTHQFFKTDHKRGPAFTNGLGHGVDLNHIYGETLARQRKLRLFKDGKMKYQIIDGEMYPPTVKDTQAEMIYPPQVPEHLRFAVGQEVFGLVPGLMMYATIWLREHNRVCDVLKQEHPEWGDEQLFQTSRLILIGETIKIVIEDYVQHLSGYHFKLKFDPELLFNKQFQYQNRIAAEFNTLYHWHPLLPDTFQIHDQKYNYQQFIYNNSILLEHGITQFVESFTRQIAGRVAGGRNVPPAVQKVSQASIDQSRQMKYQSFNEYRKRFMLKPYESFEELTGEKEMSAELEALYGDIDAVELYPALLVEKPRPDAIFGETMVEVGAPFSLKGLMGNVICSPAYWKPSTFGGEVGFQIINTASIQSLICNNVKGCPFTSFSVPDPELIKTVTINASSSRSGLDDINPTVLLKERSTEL
The assay is described as follows: Human COX-2 test (LPS-stimulated human monocytoid cell line, arachidonic acid, cyclooxygenase products by ELISA). It is filed as cell-based. The note with it: for IC50: human monocytoid cell line, LPS-stimulated, half an hour pre-incubation, arachidonic acid 15 minutes, ELISA, read-out: COX II IC50; for COX I/COX II: selectivity obtained from the two tests, ratio of COX I IC50 to COX II IC50. As for the experimental part:
Cells from a human monocytoid cell line are stimulated with LPS (incubator at 37° C., 5% CO2 -enriched atmosphere and approximately 100% relative humidity), in order to induce COX-2. Then the culture medium (RPMI 1640 enriched with 10% FCS, 2 mM glutamine, […], […] and 1 mM pyruvate) was renewed and potential inhibitors of cyclooxygenase-2, dissolved in culture medium or in phosphate-buffered saline or in any other solvent which is compatible with cell culture, were added and incubated for half an hour as described above. Arachidonic acid was pipetted in and incubation was continued for 15 minutes. The culture supernatant of the cells was removed and its content of products of cyclooxygenase metabolism (such as prostaglandin E2, prostaglandin F1a and thromboxane B2) was measured by ELISA.
For orientation: ELISA stands for enzyme-linked immunosorbent assay.

Another assay addresses T2, Human COX 1 (Homo sapiens, UniProt P23219).
T2 construct: arachidonic acid-induced aggregation of washed human thrombocytes; endogenous in cells; host or cells: washed human thrombocytes (platelets)
The assay is described as follows: Human COX 1 test (arachidonic acid-induced aggregation of washed human thrombocytes). The note with it: arachidonic acid 10 μM, 37° C., substance added 2 minutes before, read-out: COX I IC50. The class given is cell-based. The method, then: The inhibition of arachidonic acid-induced aggregation of washed human thrombocytes was used as a test system for assessing the inhibition of cyclooxygenase I. The test substances were added to a thrombocyte suspension at 37° C. 2 minutes before the addition of the arachidonic acid (final concentration 10 μM) and the course of aggregation was measured using an aggregometer. By means of a concentration-activity curve the concentration of test substance at which 50% aggregation is measured was determined (IC50).

T2 sequence (P23219 24-599): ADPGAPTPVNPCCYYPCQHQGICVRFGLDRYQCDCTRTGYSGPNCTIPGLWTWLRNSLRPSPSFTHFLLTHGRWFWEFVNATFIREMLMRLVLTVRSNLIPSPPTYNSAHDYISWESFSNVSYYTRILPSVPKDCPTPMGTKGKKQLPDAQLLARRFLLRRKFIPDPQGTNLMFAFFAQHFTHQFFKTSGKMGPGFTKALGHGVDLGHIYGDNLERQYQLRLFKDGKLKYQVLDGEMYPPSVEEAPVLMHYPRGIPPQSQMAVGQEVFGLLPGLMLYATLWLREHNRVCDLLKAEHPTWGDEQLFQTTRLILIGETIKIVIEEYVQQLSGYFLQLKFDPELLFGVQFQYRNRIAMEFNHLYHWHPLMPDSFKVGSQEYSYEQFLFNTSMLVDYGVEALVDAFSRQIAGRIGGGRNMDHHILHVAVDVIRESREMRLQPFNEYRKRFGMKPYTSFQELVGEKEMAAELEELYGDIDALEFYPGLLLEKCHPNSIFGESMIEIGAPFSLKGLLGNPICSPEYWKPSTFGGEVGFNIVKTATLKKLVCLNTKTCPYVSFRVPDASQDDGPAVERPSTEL

For orientation: IC50 means the concentration that inhibits the measured activity by half. Consider `CS(=O)(=O)Nc1ccc(S(N)(=O)=O)cc1Oc1ccc(Cl)cc1Cl` [Example 1, 3-(2,4-Dichlorophenoxy)-4-methylsulphonylamino-benzenesulphonamide], for which, at Human COX-2, the half-maximal inhibitory concentration (IC50) came to 100 nM and the “COX I/COX II” value is listed as ≥ 500. The IC50 on Human COX 1 was ≥ 50 µM.

Regarding `CS(=O)(=O)Nc1cc2c(cc1Oc1ccccc1)S(=O)(=O)NC2` [Example 4, 6-(Phenoxy) -5-methylsulphonylamino-2H-1,2-benzothiazolidin-1,1-dioxide], on Human COX-2, the IC50 came out at 110 nM and the “COX I/COX II” value is listed as ≥ 450. Also, the IC50 on Human COX 1 is ≥ 45 µM.

For the molecule `CS(=O)(=O)Nc1ccc(S(N)(=O)=O)cc1Sc1ccc(F)cc1F` [Example 6, 3-(2,4-Difluorothiophenoxy)-4-methylsulphonylamino-benzenesulphonamide], on Human COX-2, the IC50 is 200 nM and the “COX I/COX II” value was 260. Also, the IC50 on Human COX 1 stood at 52 µM.

On to `CS(=O)(=O)Nc1ccc(S(N)(=O)=O)cc1Sc1ccc(Cl)cc1Cl` [Example 7, 3-(2,4-Dichlorothiophenoxy)-4-methylsulphonylamino-benzenesulphonamide], for which, at Human COX-2, the IC50 stood at 27 nM and the “COX I/COX II” value was 1000. Further, on Human COX 1, the IC50 stood at 27 µM.

On to `CS(=O)(=O)Nc1ccc(S(N)(=O)=O)cc1Sc1ccc(F)cc1Cl` [Example 8, 3-(2-Chloro-4-fluorothiophenoxy)-4-methylsulphonylamino-benzene-sulphonamide], for which, at Human COX-2, the IC50 was determined as 150 nM and the “COX I/COX II” value was 73. The IC50 at Human COX 1 stood at 11 µM.

Consider `CS(=O)(=O)Nc1ccc(S(N)(=O)=O)cc1Sc1ccc(Cl)cc1` [Example 17, 3-(4-Chlorophenylthio) -4-methylsulphonylaminobenzenesulphonamide], for which, at Human COX-2, the IC50 stood at 170 nM and the “COX I/COX II” value is reported as 353. At Human COX 1, the IC50 is 60 µM.

In the case of `CS(=O)(=O)Nc1ccc(S(N)(=O)=O)cc1SC1CCCCC1` [Example 19, 3-(Cyclohexylthio)-4-methylsulphonylaminobenzene-sulphonamide], on Human COX-2, the IC50 turned out to be 540 nM and the “COX I/COX II” value is on record as ≥ 110. For the same molecule, at Human COX 1, the IC50 was ≥ 60 µM.

As to `CS(=O)(=O)Nc1ccc(S(N)(=O)=O)cc1Sc1ccccc1Cl` [Example 25, 3-(2-Chlorophenylthio)-4-methylsulphonylaminobenzene-sulphonamide], on Human COX-2, the IC50 was 170 nM and the “COX I/COX II” value is listed as ≥ 196. The half-inhibitory concentration (IC50) at Human COX 1 is ≥ 35 µM.

Consider `CS(=O)(=O)Nc1ccc(S(N)(=O)=O)cc1Sc1ccc(Br)cc1` [Example 26, 3-(4-Bromophenylthio)-4-methylsulphonylaminobenzenesulphonamide], for which the IC50 was 270 nM on Human COX-2 and ≥ 70 µM on Human COX 1. For the same molecule, at Human COX-2, the “COX I/COX II” value is reported as ≥ 253.
